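48-hour exposure; five concentrations; linearly interpolated endpoints. At the TGI there is no net growth.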
Key:
Experiment in all cases: NCI anticancer screen, dose series, 48 h
IGROV1 ovarian = system: IGROV1 ovarian
SK-OV-3 ovarian = system: SK-OV-3 ovarian
786-0 renal = system: 786-0 renal
EKVX NSCLC = system: EKVX NSCLC
TK-10 renal = system: TK-10 renal
SR leukemia = system: SR leukemia
NCI-H226 lung = system: NCI-H226 lung
SK-MEL-28 melanoma = system: SK-MEL-28 melanoma
RXF 393 renal = system: RXF 393 renal
SK-MEL-2 melanoma = system: SK-MEL-2 melanoma
SF-295 CNS = system: SF-295 CNS
OVCAR-8 ovarian = system: OVCAR-8 ovarian
SN12C renal = system: SN12C renal
SNB-19 CNS = system: SNB-19 CNS
COLO 205 colon = system: COLO 205 colon
OVCAR-5 ovarian = system: OVCAR-5 ovarian
SW-620 colon = system: SW-620 colon
HOP-92 NSCLC = system: HOP-92 NSCLC
DU-145 prostate = system: DU-145 prostate
OVCAR-3 ovarian = system: OVCAR-3 ovarian
MDA-MB-231 breast = system: MDA-MB-231 breast
NCI-H522 lung = system: NCI-H522 lung
K-562 leukemia = system: K-562 leukemia
T-47D breast = system: T-47D breast
UACC-62 melanoma = system: UACC-62 melanoma
LOX IMVI melanoma = system: LOX IMVI melanoma
KM12 colon = system: KM12 colon
M14 melanoma = system: M14 melanoma
SNB-75 CNS = system: SNB-75 CNS
SF-268 CNS = system: SF-268 CNS
CAKI-1 renal = system: CAKI-1 renal
MALME-3M melanoma = system: MALME-3M melanoma
NCI-H460 lung = system: NCI-H460 lung
MCF7 breast = system: MCF7 breast
OVCAR-4 ovarian = system: OVCAR-4 ovarian
HT29 colon = system: HT29 colon
HCT-15 colon = system: HCT-15 colon
NCI-H23 lung = system: NCI-H23 lung
SK-MEL-5 melanoma = system: SK-MEL-5 melanoma
HOP-62 NSCLC = system: HOP-62 NSCLC
UACC-257 melanoma = system: UACC-257 melanoma
PC-3 prostate = system: PC-3 prostate
UO-31 renal = system: UO-31 renal
A549 NSCLC = system: A549 NSCLC
SF-539 CNS = system: SF-539 CNS
HS 578T breast = system: HS 578T breast
MDA-MB-435 = system: MDA-MB-435
HL-60(TB) leukemia = system: HL-60(TB) leukemia
ACHN renal = system: ACHN renal
HCT-116 colon = system: HCT-116 colon
NCI/ADR-RES ovarian = system: NCI/ADR-RES ovarian
U251 CNS = system: U251 CNS
RPMI-8226 leukemia = system: RPMI-8226 leukemia
A498 renal = system: A498 renal
BT-549 breast = system: BT-549 breast
MOLT-4 leukemia = system: MOLT-4 leukemia
CCRF-CEM leukemia = system: CCRF-CEM leukemia

## COc1cc2c(cc1OCCCCOc1cc3nc(C)nc(Cl)c3cc1OC)N=C[C@@H]1CCCN1C2=O
IGROV1 ovarian
  TGI: 4.6 µM
SK-OV-3 ovarian
  TGI: > 100 µM
786-0 renal
  TGI: 12.4 µM
EKVX NSCLC
  TGI: 19.4 µM
TK-10 renal
  TGI: 6.04 µM
SR leukemia
  TGI: 1.96 µM
NCI-H226 lung
  TGI: 4.07 µM
SK-MEL-28 melanoma
  TGI: 5.54 µM
RXF 393 renal
  TGI: 4.64 µM
SK-MEL-2 melanoma
  TGI: 3.6 µM
SF-295 CNS
  TGI: 6.76 µM
OVCAR-8 ovarian
  TGI: 5.48 µM
SN12C renal
  TGI: 4.8 µM
SNB-19 CNS
  TGI: 33.1 µM
COLO 205 colon
  TGI: 45.4 µM
OVCAR-5 ovarian
  TGI: 5.3 µM
SW-620 colon
  TGI: 10.1 µM
HOP-92 NSCLC
  TGI: 5.52 µM
DU-145 prostate
  TGI: 13.2 µM
OVCAR-3 ovarian
  TGI: 4.7 µM
MDA-MB-231 breast
  TGI: 3.43 µM
NCI-H522 lung
  TGI: 2.12 µM
K-562 leukemia
  TGI: 4.79 µM
T-47D breast
  TGI: 31.8 µM
UACC-62 melanoma
  TGI: 2.8 µM
LOX IMVI melanoma
  TGI: 3.04 µM
KM12 colon
  TGI: 4.44 µM
M14 melanoma
  TGI: 3.5 µM
SNB-75 CNS
  TGI: 3.34 µM
SF-268 CNS
  TGI: 8.44 µM
CAKI-1 renal
  TGI: 5.82 µM
MALME-3M melanoma
  TGI: 3.4 µM
NCI-H460 lung
  TGI: 45.6 µM
MCF7 breast
  TGI: > 100 µM
OVCAR-4 ovarian
  TGI: 11.1 µM
HT29 colon
  TGI: 10.2 µM
HCT-15 colon
  TGI: 8.78 µM
NCI-H23 lung
  TGI: 3.37 µM
SK-MEL-5 melanoma
  TGI: 3.4 µM
HOP-62 NSCLC
  TGI: 7.24 µM
UACC-257 melanoma
  TGI: 4.04 µM
PC-3 prostate
  TGI: 8.91 µM
UO-31 renal
  TGI: 4.73 µM
A549 NSCLC
  TGI: 7.56 µM
SF-539 CNS
  TGI: 4.2 µM
HS 578T breast
  TGI: 5.63 µM
MDA-MB-435
  TGI: 2.97 µM
HL-60(TB) leukemia
  TGI: 7.43 µM
ACHN renal
  TGI: 8.82 µM
HCT-116 colon
  TGI: 5.59 µM
NCI/ADR-RES ovarian
  TGI: 6.87 µM
U251 CNS
  TGI: 6.88 µM

## CCOC(=O)C1C=C1C(C)(C)O (stereo unspecified)
IGROV1 ovarian
  TGI: > 10 µM
SK-OV-3 ovarian
  TGI: > 10 µM
786-0 renal
  TGI: > 10 µM
EKVX NSCLC
  TGI: > 10 µM
TK-10 renal
  TGI: > 10 µM
SR leukemia
  TGI: > 10 µM
NCI-H226 lung
  TGI: > 10 µM
SK-MEL-28 melanoma
  TGI: > 10 µM
RXF 393 renal
  TGI: > 10 µM
SK-MEL-2 melanoma
  TGI: > 10 µM
SF-295 CNS
  TGI: > 10 µM
OVCAR-8 ovarian
  TGI: > 10 µM
SN12C renal
  TGI: > 10 µM
SNB-19 CNS
  TGI: > 10 µM
OVCAR-5 ovarian
  TGI: > 10 µM
SW-620 colon
  TGI: > 10 µM
HOP-92 NSCLC
  TGI: > 10 µM
DU-145 prostate
  TGI: > 10 µM
OVCAR-3 ovarian
  TGI: > 10 µM
RPMI-8226 leukemia
  TGI: > 10 µM
K-562 leukemia
  TGI: > 10 µM
T-47D breast
  TGI: > 10 µM
A498 renal
  TGI: > 10 µM
LOX IMVI melanoma
  TGI: > 10 µM
KM12 colon
  TGI: > 10 µM
M14 melanoma
  TGI: > 10 µM
BT-549 breast
  TGI: > 10 µM
SNB-75 CNS
  TGI: > 10 µM
SF-268 CNS
  TGI: > 10 µM
MALME-3M melanoma
  TGI: > 10 µM
NCI-H460 lung
  TGI: > 10 µM
MCF7 breast
  TGI: > 10 µM
HT29 colon
  TGI: > 10 µM
HCT-15 colon
  TGI: > 10 µM
NCI-H23 lung
  TGI: > 10 µM
SK-MEL-5 melanoma
  TGI: > 10 µM
HOP-62 NSCLC
  TGI: > 10 µM
MOLT-4 leukemia
  TGI: > 10 µM
UACC-257 melanoma
  TGI: > 10 µM
PC-3 prostate
  TGI: > 10 µM
UO-31 renal
  TGI: > 10 µM
A549 NSCLC
  TGI: > 10 µM
SF-539 CNS
  TGI: > 10 µM
HS 578T breast
  TGI: > 10 µM
MDA-MB-435
  TGI: > 10 µM
HL-60(TB) leukemia
  TGI: > 10 µM
ACHN renal
  TGI: > 10 µM
U251 CNS
  TGI: > 10 µM
CCRF-CEM leukemia
  TGI: > 10 µM

From PubChem BioAssay (NCI)
